Experimental data from article PMC11677424, “Early-Stage IM Treatment with the Host-Derived Immunostimulant CPDI-02 Increases Curative Protection of Healthy Outbred Mice Against Subcutaneous Infection with Community-Acquired Methicillin-Resistant Staphylococcus aureus USA300” (Pharmaceutics, 2024).

What was measured:
CA-MRSA USA300 LAC = assay: Curative treatment of female CD-1 mice infected SQ with CA-MRSA: abscess surface area by image analysis; type: in vivo, Staphylococcus aureus; conditions: for effect on maximum abscess surface area or time to resolution vs vehicle alone: 6 treatments
Procedure: CA-MRSA USA300 LAC (Staphylococcus aureus Rosenbach, ATCC BAA-1756) was stored in 50% glycerol at −80 °C until use. To start a culture, a Tryptic Soy Agar (TSA; Remel) plate was streaked and incubated overnight at 37 °C. A single colony from the streaked agar plate was transferred to a 50 mL conical tube containing 30 mL of Tryptic Soy Broth (TSB; Remel) and incubated [37 °C] overnight while shaking [200 rpm]. The overnight culture was diluted [1:10] in TSB, incubated at 37 °C for ~2 h until A600 = 0.5 to 0.55, and pelleted [3000 g, 10 min] at 4 °C. The pellet was resuspended in PBS and pelleted as before and then resuspended in 0.05% (w/v) Cytodex-1 in sterile PBS (typical yield ~5 × 10^8 CFU/mL). MRSA concentration was confirmed by serial dilution in sterile PBS, dot plating on TSA plates, and incubation at 37 °C for 24 h before counting.
All procedures were approved by the University of Nebraska Medical Center Institutional Animal Care and Use Committee. Female outbred CD-1 mice (Charles Rivers, Strain Code 022, 4-6 weeks old) were acclimated in the animal facility for at least one week, and their rear flanks were shaved 24 h before the study. Mice were anesthetized with isoflurane and 0.100 mL of CA-MRSA stock solution (Section 2.3) was injected SQ (5 × 10^7 CFU total) from the left rear flank into the dorsal side. […] For IM (left caudal muscle) and SQ (left flank) administration, CPDI-02 was administered in 0.050 mL of sterile PBS [20 mg/mL] (volume adjusted to 50 mg/kg dose). For topical administration (TOP), CPDI-02 was applied to abscesses in 0.100 mL of ointment (3% w/v) (Section 2.2) using a positive displacement pipette [150 mg/kg dose]. For IV administration (tail vein), CPDI-02 was administered in 0.050 mL sterile PBS [5 mg/mL] (volume adjusted to 12.5 mg/kg dose). […] Mouse abscesses were imaged with reference scales daily over 10 days starting at 24 h post-challenge. Abscess surface areas were determined by image analysis (ImageJ®, ver.1.54h) and compared between vehicle and treatment group for each administration route over ten days post-challenge by repeated measurement with two-way ANOVA with Geisser–Greenhouse correction.

[1] = test system: pro-inflammatory cytokines/chemokines in subcutaneous abscesses; assay: Pro-inflammatory cytokines and chemokines in subcutaneous abscesses (multiplex ELISA); type: in vivo, female outbred CD-1 mice; conditions: single IM 50 mg/kg at 6 h post-challenge, n = 5
Procedure: At 3 h and 18 h post-treatment (Section 2.4: single IM treatment), mice were euthanized (n = 5 per cohort per time point), then abscess and skin biopsies were collected (Section 2.5), suspended in PBS [2 mL], and homogenized in C tubes (Miltenyi Biotec 130-093-237) using a gentleMACS Dissociator (Miltenyi Biotec 130-093-235, program B). Tissue homogenates were stored at −20 °C until analysis. Homogenized abscess tissues were then analyzed using a V-PLEX Pro-inflammatory Panel 1 Mouse Kit (Meso Scale Diagnostics K15048D-1) on a MESO QuickPlex SQ 120MM (MESO, Rockville, MD, USA) to measure the inflammatory markers of the abscesses.

CA-MRSA USA300 = conditions: cited from earlier work
From the text: Consistent with protection, SQ treatment with CPDI-02 increased local levels of IL-1β, IL-6, and CXCL1 and NP recruitment to the abscess. In contrast, SQ treatment of C5aR1 knockout mice with CDPI-02 had no effect against SQ infection with CA-MRSA up to ...

[2] = test system: neutrophils (Ly6G/Ly6C+) and mononuclear phagocytes (F4/80+) in subcutaneous abscesses; assay: Proportions of neutrophils and mononuclear phagocytes in subcutaneous abscesses (quantitative IHC); type: in vivo, female outbred CD-1 mice; conditions: single IM 50 mg/kg at 6 h post-challenge; 18 h post-treatment; n = 3 mice
[3] = test system: healthy male and female outbred CD-1 mice; assay: Repeat IM dosing in healthy CD-1 mice; type: in vivo
Procedure: Sixty CD-1 mice (thirty male and thirty female) approximately six weeks old were randomized into six cohorts (three cohorts for each gender) and then intramuscularly administered either vehicle alone (filter-sterilized 0.2 μm endotoxin-free PBS), vehicle containing CPDI-02 at 50% the observed MTD [65 mg/kg], or CPDI-02 suspended in PBS at 100% the observed MTD [130 mg/kg] twice a week over 32 days (nine doses total). Mice were weighed prior to each dose administration. On the day of administration, mice were assigned a Pain and Distress Assessment Score (Table S1). Four days after the last treatment, through terminal cardiac bleed, whole blood was collected for complete blood count (CBC) with differential (Abaxis VetScan® HM5 Hematology Analyzer, Union City, CA, USA) and blood chemistry (Abaxis VetScan® VS-2 Blood Chemistry Analyzer). In addition, injection site muscle tissues were collected, fixed in 10% formalin for 48 h, and then embedded in paraffin. Paraffin samples were cut into sections and underwent an H&E stain, then analyzed for signs of inflammation and other tissue abnormalities utilizing a Nikon Eclipse E600 (Nikon Corporation, Tokyo, Japan) at 200× magnification, and imaged using a Lumenera Infinity 2 Microscope Camera.

CSCC[C@H](NC(=O)[C@H](CC(=O)O)NC(=O)[C@H](CCCCN)NC(=O)[C@H](Cc1ccccc1)NC(=O)[C@H](CO)NC(=O)[C@@H](N)Cc1ccc(O)cc1)C(=O)N1CCC[C@H]1C(=O)N(C)[C@@H](CC(C)C)C(=O)N[C@H](C)C(=O)N[C@@H](CCCNC(=N)N)C(=O)O [CPDI-02]
effect of repeat treatment starting at 24 h post-challenge (CA-MRSA USA300 LAC; regardless of administration route): no effect | maximum abscess surface area (Day 1 post-challenge) (CA-MRSA USA300 LAC; repeat IM 50 mg/kg starting 6 h post-challenge, mean ± SEM, n = 10, vehicle 74 ± 11, p = 0.0052, SEM): 31 ± 8 mm^2 | effect on maximum abscess surface area or time to resolution vs vehicle alone (CA-MRSA USA300 LAC; repeat IV (tail vein) 12.5 mg/kg starting 6 h post-challenge): no effect | effect on maximum abscess surface area or time to resolution vs vehicle alone (CA-MRSA USA300 LAC; repeat SQ (left flank) 50 mg/kg starting 6 h post-challenge): no effect | effect on maximum abscess surface area or time to resolution vs vehicle alone (CA-MRSA USA300 LAC; repeat topical (TOP), 0.100 mL of 3% w/v ointment on abscess, 150 mg/kg, starting 6 h post-challenge): no effect | time to resolution vs vehicle alone (CA-MRSA USA300 LAC; single IM 50 mg/kg at 6 h post-challenge, similar extent as repeated IM treatment): decreased | levels of IFN-γ, IL-2, IL-4, IL-5, IL-6, IL-10, IL-12p70, CXCL-1 [KC/GRO], TNF-α in subcutaneous abscesses ([1]; 3 h and 18 h post-treatment): no effect | levels of IL-1β in subcutaneous abscesses vs vehicle alone ([1]; 3 h post-treatment): decreased | effect against SQ infection with CA-MRSA vs inactive scCPDI-02 (CA-MRSA USA300; C5aR1 knockout mice, SQ treatment, up to 48 h post-challenge): no effect | local levels of IL-1β, IL-6 and CXCL1 and NP recruitment to the abscess (CA-MRSA USA300; outbred mice, prophylactic SQ treatment): increased | maximum abscess surface area, CA-MRSA load per gram of tissue and time to abscess resolution vs inactive scCPDI-02 (CA-MRSA USA300; outbred mice, repeat SQ treatment before and after SQ challenge, three injections total, 12.5 mg/kg): significantly decreased | increase of ratio of MPs (F4/80+) to total cells (DAPI+) vs vehicle alone [2]: 4 fold | increase of ratio of mononuclear phagocytes to neutrophils (Ly6G/Ly6C+) vs vehicle alone [2]: 7 fold | ratio of NPs (Ly6G/Ly6C+) to total cells (DAPI+) in subcutaneous abscesses vs vehicle alone [2]: similar | inflammation around the injection site vs vehicle alone ([3]; IM 65 and 130 mg/kg, dose-dependent, greater proportion of female than male mice, H&E): increased signs of mild to severe inflammation | mortality vs vehicle alone ([3]; female mice, repeat IM 130 mg/kg, after the eighth and ninth IM injection, p = 0.0022): increased mortality | signs of distress up to 2 h after injection ([3]; male and female CD-1 mice, IM 65 or 130 mg/kg, 9 injections, any treatment group): No signs of distress | weight gain ([3]; male or female CD-1 mice, IM 65 or 130 mg/kg twice per week over 32 days, 9 injections, n = 10): no effect | effect on CBC (including platelets, platecrit) or blood chemistry vs vehicle alone ([3]; male or female mice, IM 65 or 130 mg/kg, up to 4 days after final injection (Day 32), n = 5): did not | inflammation in thymus, heart, lungs, brain, liver, spleen, kidneys, femur bone marrow, popliteal lymph nodes, Peyer's patches ([3]; repeat IM 65 or 130 mg/kg, H&E): no signs of inflammation
